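In this assay, cells in 96-well plates receive the compound at five concentrations for 48 hours. Endpoints are linearly interpolated between the surrounding concentrations. GI50: concentration for 50% inhibition of growth. TGI: total growth inhibition.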
What was measured:
Experiment in all cases: NCI tumour cell line growth inhibition, 48 h
SR leukemia = test system: SR leukemia
OVCAR-5 ovarian = test system: OVCAR-5 ovarian
SNB-75 CNS = test system: SNB-75 CNS
SF-268 CNS = test system: SF-268 CNS
KM12 colon = test system: KM12 colon
SF-295 CNS = test system: SF-295 CNS
786-0 renal = test system: 786-0 renal
SK-MEL-5 melanoma = test system: SK-MEL-5 melanoma
RPMI-8226 leukemia = test system: RPMI-8226 leukemia
COLO 205 colon = test system: COLO 205 colon

SMILES | GI50 (SR leukemia) | TGI (SR leukemia) | GI50 (OVCAR-5 ovarian) | TGI (OVCAR-5 ovarian) | GI50 (SNB-75 CNS) | TGI (SNB-75 CNS) | GI50 (SF-268 CNS) | TGI (SF-268 CNS) | GI50 (KM12 colon) | TGI (KM12 colon) | GI50 (SF-295 CNS) | TGI (SF-295 CNS) | GI50 (786-0 renal) | TGI (786-0 renal) | GI50 (SK-MEL-5 melanoma) | TGI (SK-MEL-5 melanoma) | GI50 (RPMI-8226 leukemia) | TGI (RPMI-8226 leukemia) | GI50 (COLO 205 colon) | TGI (COLO 205 colon)
O=S(=O)(NC1=NCCN1C(=S)SN1CCn2c1nsc2=S)c1ccc(Br)cc1 | 24.2 µM | 74.1 µM | > 100 µM | > 100 µM | 44.5 µM | > 100 µM | 39.4 µM | > 100 µM | 25.5 µM | > 100 µM | 46.2 µM | > 100 µM | 31 µM | > 100 µM | 19.5 µM | 47.9 µM | 1.86 µM | 37.2 µM | 28.7 µM | 86.3 µM
CC1=C2[C@@H](CC1)[C@]1(C)O[C@@](C3CCCCC3)(C[C@H]1OC(=O)CO)[C@H]2OC(=O)/C=C/c1ccccc1 | 4.6 µM | 17.9 µM | 15.2 µM | 37.1 µM | 7.94 µM | 34.8 µM | 1.02 µM | 17.6 µM | 8.34 µM | 24.7 µM | 6.45 µM | 19 µM | 1.48 µM | 17.6 µM | 12 µM | 24.9 µM | 9.51 µM | 33.2 µM | 8.06 µM | 24.3 µM
Cn1ccnc1CC(C)(O)c1ccccc1 (stereo not given) | – | > 100 µM | – | > 100 µM | – | > 100 µM | – | > 100 µM | – | > 100 µM | – | > 100 µM | – | > 100 µM | – | > 100 µM | – | > 100 µM | – | > 100 µM
O=C(O[C@H]1CN[C@H](C#Cc2cc3ncnc(Nc4ccc5c(ccn5Cc5cc(F)ccc5F)c4)c3s2)C1)N1CCOCC1 | 6.28 µM | 24.5 µM | 1.07 µM | 11.1 µM | 0.853 µM | 6.21 µM | 3.23 µM | 8.8 µM | 4.57 µM | 9.25 µM | 6.02 µM | 17.7 µM | 4.55 µM | 12.6 µM | 2.95 µM | 6.13 µM | 4.65 µM | 13.7 µM | 3.16 µM | 6.86 µM
COc1ccc(/C=N\NC(=O)CN2CCN(c3cc4c(cc3F)c(=O)c(C(=O)N/N=C/c3ccc(OC)c(OC)c3)cn4C3CC3)CC2)cc1OC | 3.11 µM | > 100 µM | 2.39 µM | 6.94 µM | 1.56 µM | 3.49 µM | 2.53 µM | 7.12 µM | 3.42 µM | 10.7 µM | 17.9 µM | 63 µM | 4.83 µM | 22.6 µM | 3.69 µM | 15.8 µM | 2.77 µM | 8.82 µM | 3.38 µM | 14.8 µM
Cn1c([N+](=O)[O-])cnc1/C=C1\Oc2ccccc2C1=O | 0.0392 µM | 0.534 µM | 1.99 µM | 6.63 µM | 1.51 µM | 4.87 µM | 0.303 µM | 1.66 µM | 0.412 µM | 2.46 µM | 1.65 µM | 6.19 µM | 0.203 µM | 3.67 µM | 0.234 µM | 0.727 µM | 1.27 µM | 5.31 µM | 0.543 µM | 3.02 µM
COc1cc(Nc2nccc(Nc3ccc4c(C)[nH]nc4c3)n2)cc(OC)c1OC | 1.42 µM | > 15.3 µM | 1.8 µM | 20.8 µM | 0.486 µM | 3.22 µM | 2.42 µM | 7.89 µM | 0.68 µM | 3.06 µM | 2.66 µM | 9.77 µM | 2.93 µM | 9.7 µM | 2.69 µM | 5.96 µM | 5.21 µM | 13.2 µM | 2.02 µM | 5.65 µM
CC(C)=CCCC(C)c1ccc(C)c2c1OCN(CC1CCNCC1)C2 (stereo not given) | 2.79 µM | 9.83 µM | 14.3 µM | 28.8 µM | 11.9 µM | 24.3 µM | 16.6 µM | 33.3 µM | 12.3 µM | 26 µM | 15.9 µM | 34.9 µM | 12.2 µM | 26.3 µM | 4.97 µM | 18.3 µM | 7.25 µM | 32.6 µM | 1.86 µM | 3.41 µM
CCOC(=O)Nc1nc2ccc(Cn3cccc3)cc2[nH]1 | – | > 36.2 µM | – | > 100 µM | – | 2.11 µM | – | > 100 µM | – | > 100 µM | – | 20 µM | – | > 100 µM | – | > 38.6 µM | – | > 100 µM | – | 17.7 µM
CC1=C(C(=O)Nc2ccccc2C)C(c2ccc(Cl)c(Cl)c2)C(C(=O)Nc2ccccc2C)=C(C)N1 | – | 36.8 µM | – | 53.5 µM | – | > 100 µM | – | 47.3 µM | – | 87.4 µM | – | 43.2 µM | – | 67.3 µM | – | 31.8 µM | – | 53.7 µM | – | 30 µM
